Key:
[1] = test system: filaggrin (FLG) proteins; test: ELISA measurement of filaggrin (FLG) and filaggrin repair capacity; assay type: in vivo, human; conditions: person, vulgaris psoriasis
From the text: A kit for sandwich enzyme immunoassay was used for quantitatively in vitro measuring filaggrin (FLG) proteins (gene related filaggrin) in a tissue homogenate or other body fluids.
Specifically, as for detection strength, measurement was done at a wavelength of 450 nm. Biotin-coupled polyclonal antibody specifically coupled with FLG was used, and the actual measured value of filaggrin (ng/ml frozen serum) was roughly estimated by a standard curve (FIG. 17) previously prepared with FLG standard sample.
Amongst mammal patients (human and dog etc.) having Th3 march/test animals, patients an amount of filaggrin proteins based on filaggrin (FLG) gene which is responsible gene of atopy syndrome (atopy is newly defined as atopy syndrome by the finding of filaggrin) were not detected or were detected in a small amount (deletion or mutation of filaggrin gene) were selected (Th3-FLG).
Subsequently, “zinc finger/Znf” (see Table 5 above) was administrated to the patients etc. (Th3-FLG) in which deletion etc. of filaggrin were confirmed, after which filaggrin repair activity was compared. […]
The filaggrin repair capacity (% of control) by zinc finger/Znf was calculated according to the following formula: […]

[2] = test system: vulgaris psoriasis; test: Clinical effects in vulgaris psoriasis (Th1 disease/Th3 march); assay type: in vivo, human; conditions: person, oral 75 mg twice per day as polaprezinc, 61 days
Procedure: This example is an example of treatment of Th2 march patient from Th1 disease (psoriasis). (1) For referential example (control experiment), zinc agent (Trade name: Promac) was tried to be administrated to this patient. Since the activated TGF-β1 was as high as 9.3 ng/ml (average value of healthy subjects: 1.1 ng/ml), a novel supplement TgF was administrated to regulate TGF-β1. Thereafter, Promac was orally administrated to the adult twice per day in an amount of 75 mg per one dosage, or 1.6 mg/kg at a time after breakfast and a time before bedtime as polaprezinc. Promac was administrated for 61 days. […] (2) On the other hand, zinc finger/Znf was administrated to the patient for 74 days. This case (vulgaris psoriasis) is a disease presenting hyperkeratosis and is characterized by scale.

[3] = test system: dog rheumatoid arthritis; test: Treatment of dog rheumatoid arthritis (plain x-ray examination, walking); assay type: in vivo
From the text: FIG. 3 is a drawing showing the results of examining characteristic bone resorption in dog rheumatoid arthritis. Th3 march via zinc cell cytokine signal is marching through a route of cell surface BMP and TGF-β1. […] When the healing can be seen thereafter (FIG. 4), bone resorption and bone augmentation are equilibrated. However, TH3 vital reaction is enhanced to clinically induce atopic dermatitiss.
In FIG. 4, according to the finding of the plain x-ray examination, a bone resorption image of arthritis due to rheumatoid arthritis which is Th1 vital reactive disease (pretreatment) is shown. In the right figure of FIG. 4 showing the post-treatment, an improvement image of joint was seen when bone resorption and bone augmentation were balanced. […] According to the finding of post-treatment in the right figure of FIG. 4, incisura trochlearis in the elbow joint was visualized and significant improvement tendency was observed (Evaluation: While the dog before treatment hated going for a walk, the dog could go for a walk (about 5 minutes). It is noted that the standard walking period in the same kind of dog is within 30 minutes).

Row | Molecule | filaggrin ([1]; at the time after zinc agent (control experiment)) [ng/mL] | FLA repair ([1]; oral 75 mg twice per day as polaprezinc, 61 days) | clinical effect [2] | clinical effect ([2]; listed as zinc agent) | walk the dog could go for ([3]; dog after treatment, before treatment hated going for a walk, standard within 30 minutes) | bone resorption during the course of the treatment ([3]; dog rheumatoid arthritis, FIG. 3) | hyperpermeability image due to invasion around the joint and inflammation of joint ([3]; dog, Th1 arthritis, direct administration of 4MU within the joint, plain x-ray)
1 | NCCC(=O)[N-][C@@H](Cc1c[nH]cn1)C(=O)[O-].[Zn+2] [Promac, polaprezinc] | 0.9 | could not be recognized | no clinical effect could be recognized | no effect | – | – | –
2 | IFN-γ: recombinant interferon-gamma used to treat dog rheumatoid arthritis (protein, UniProt P42161 24-166, looked up) Interferon gamma: QAMFFKEIENLKEYFNASNPDVSDGGSLFVDILKKWREESDKTIIQSQIVSFYLKLFDNFKDNQIIQRSMDTIKEDMLGKFLNSSTSKREDFLKLIQIPVNDLQVQRKAINELIKVMNDLSPRSNLRKRKRSQNLFRGRRASK | – | – | – | – | about 5 minutes | bone resorption is predominant | significantly improved
